Assay results from PubChem BioAssay (NCI).
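Following 48 hours of exposure in 96-well plates, responses at five concentrations were used to interpolate endpoints linearly. GI50 marks 50% less growth. TGI marks complete inhibition of growth.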

Tests used:
Assay in all cases: DTP human tumour cell line panel, 48 h
786-0 renal = test system: 786-0 renal
A498 renal = test system: A498 renal
A549 NSCLC = test system: A549 NSCLC
ACHN renal = test system: ACHN renal
BT-549 breast = test system: BT-549 breast
CAKI-1 renal = test system: CAKI-1 renal
CCRF-CEM leukemia = test system: CCRF-CEM leukemia
COLO 205 colon = test system: COLO 205 colon
DU-145 prostate = test system: DU-145 prostate
EKVX NSCLC = test system: EKVX NSCLC
HCC-2998 colon = test system: HCC-2998 colon
HCT-116 colon = test system: HCT-116 colon
HCT-15 colon = test system: HCT-15 colon
HL-60(TB) leukemia = test system: HL-60(TB) leukemia
HOP-62 NSCLC = test system: HOP-62 NSCLC
HOP-92 NSCLC = test system: HOP-92 NSCLC
HS 578T breast = test system: HS 578T breast
HT29 colon = test system: HT29 colon
IGROV1 ovarian = test system: IGROV1 ovarian
K-562 leukemia = test system: K-562 leukemia
KM12 colon = test system: KM12 colon
LOX IMVI melanoma = test system: LOX IMVI melanoma
M14 melanoma = test system: M14 melanoma
MALME-3M melanoma = test system: MALME-3M melanoma
MCF7 breast = test system: MCF7 breast
MDA-MB-231 breast = test system: MDA-MB-231 breast
MDA-MB-435 = test system: MDA-MB-435
MOLT-4 leukemia = test system: MOLT-4 leukemia
NCI-H226 lung = test system: NCI-H226 lung
NCI-H23 lung = test system: NCI-H23 lung
NCI-H460 lung = test system: NCI-H460 lung
NCI-H522 lung = test system: NCI-H522 lung
NCI/ADR-RES ovarian = test system: NCI/ADR-RES ovarian
OVCAR-3 ovarian = test system: OVCAR-3 ovarian
OVCAR-4 ovarian = test system: OVCAR-4 ovarian
OVCAR-5 ovarian = test system: OVCAR-5 ovarian
OVCAR-8 ovarian = test system: OVCAR-8 ovarian
PC-3 prostate = test system: PC-3 prostate
RPMI-8226 leukemia = test system: RPMI-8226 leukemia
RXF 393 renal = test system: RXF 393 renal
SF-268 CNS = test system: SF-268 CNS
SF-295 CNS = test system: SF-295 CNS
SF-539 CNS = test system: SF-539 CNS
SK-MEL-2 melanoma = test system: SK-MEL-2 melanoma
SK-MEL-28 melanoma = test system: SK-MEL-28 melanoma
SK-MEL-5 melanoma = test system: SK-MEL-5 melanoma
SK-OV-3 ovarian = test system: SK-OV-3 ovarian
SN12C renal = test system: SN12C renal
SNB-19 CNS = test system: SNB-19 CNS
SNB-75 CNS = test system: SNB-75 CNS
SR leukemia = test system: SR leukemia
SW-620 colon = test system: SW-620 colon
T-47D breast = test system: T-47D breast
TK-10 renal = test system: TK-10 renal
U251 CNS = test system: U251 CNS
UACC-257 melanoma = test system: UACC-257 melanoma
UACC-62 melanoma = test system: UACC-62 melanoma
UO-31 renal = test system: UO-31 renal

CCOc1ccc(-c2cnnn2-c2nonc2-n2cccc2)cc1
GI50 (786-0 renal): 416 nM | TGI (786-0 renal): > 100000 nM | GI50 (A498 renal): 203 nM | TGI (A498 renal): 924 nM | GI50 (A549 NSCLC): 388 nM | TGI (A549 NSCLC): > 100000 nM | GI50 (ACHN renal): 689 nM | TGI (ACHN renal): > 100000 nM | GI50 (BT-549 breast): 363 nM | GI50 (CAKI-1 renal): 352 nM | TGI (CAKI-1 renal): > 100000 nM | GI50 (CCRF-CEM leukemia): 296 nM | TGI (CCRF-CEM leukemia): > 100000 nM | GI50 (COLO 205 colon): 247 nM | TGI (COLO 205 colon): 808 nM | GI50 (DU-145 prostate): 286 nM | TGI (DU-145 prostate): 905 nM | GI50 (EKVX NSCLC): 569 nM | TGI (EKVX NSCLC): > 100000 nM | GI50 (HCC-2998 colon): 364 nM | TGI (HCC-2998 colon): > 33000 nM | GI50 (HCT-116 colon): 226 nM | TGI (HCT-116 colon): 1460 nM | GI50 (HCT-15 colon): 251 nM | TGI (HCT-15 colon): > 100000 nM | GI50 (HL-60(TB) leukemia): 309 nM | TGI (HL-60(TB) leukemia): 13400 nM | GI50 (HOP-62 NSCLC): 421 nM | TGI (HOP-62 NSCLC): > 100000 nM | GI50 (HOP-92 NSCLC): 401 nM | TGI (HOP-92 NSCLC): 9270 nM | GI50 (HS 578T breast): 229 nM | TGI (HS 578T breast): 873 nM | GI50 (HT29 colon): 220 nM | TGI (HT29 colon): 4540 nM | GI50 (IGROV1 ovarian): 581 nM | TGI (IGROV1 ovarian): > 100000 nM | GI50 (K-562 leukemia): 63.8 nM | TGI (K-562 leukemia): > 100000 nM | GI50 (KM12 colon): 125 nM | TGI (KM12 colon): 10100 nM | GI50 (LOX IMVI melanoma): 460 nM | TGI (LOX IMVI melanoma): > 100000 nM | GI50 (M14 melanoma): 122 nM | TGI (M14 melanoma): 365 nM | GI50 (MALME-3M melanoma): 383 nM | TGI (MALME-3M melanoma): > 78300 nM | GI50 (MCF7 breast): 283 nM | TGI (MCF7 breast): > 100000 nM | GI50 (MDA-MB-231 breast): 337 nM | TGI (MDA-MB-231 breast): 5030 nM | GI50 (MDA-MB-435): 34.5 nM | TGI (MDA-MB-435): 168 nM | GI50 (MOLT-4 leukemia): 510 nM | TGI (MOLT-4 leukemia): 31700 nM | GI50 (NCI-H226 lung): 1520 nM | TGI (NCI-H226 lung): > 100000 nM | GI50 (NCI-H23 lung): 282 nM | GI50 (NCI-H460 lung): 345 nM | TGI (NCI-H460 lung): > 33400 nM | GI50 (NCI-H522 lung): 121 nM | TGI (NCI-H522 lung): 531 nM | GI50 (NCI/ADR-RES ovarian): 139 nM | TGI (NCI/ADR-RES ovarian): > 38100 nM | GI50 (OVCAR-3 ovarian): 233 nM | TGI (OVCAR-3 ovarian): 650 nM | GI50 (OVCAR-4 ovarian): 655 nM | TGI (OVCAR-4 ovarian): > 100000 nM | GI50 (OVCAR-5 ovarian): 1080 nM | TGI (OVCAR-5 ovarian): > 100000 nM | GI50 (OVCAR-8 ovarian): 439 nM | TGI (OVCAR-8 ovarian): > 100000 nM | GI50 (PC-3 prostate): 365 nM | TGI (PC-3 prostate): > 100000 nM | GI50 (RPMI-8226 leukemia): 320 nM | TGI (RPMI-8226 leukemia): 10900 nM | GI50 (RXF 393 renal): 172 nM | TGI (RXF 393 renal): 774 nM | GI50 (SF-268 CNS): 736 nM | TGI (SF-268 CNS): > 100000 nM | GI50 (SF-295 CNS): 295 nM | TGI (SF-295 CNS): > 91200 nM | GI50 (SF-539 CNS): 319 nM | TGI (SF-539 CNS): 3770 nM | GI50 (SK-MEL-2 melanoma): 308 nM | TGI (SK-MEL-2 melanoma): > 100000 nM | GI50 (SK-MEL-28 melanoma): 402 nM | TGI (SK-MEL-28 melanoma): > 100000 nM | GI50 (SK-MEL-5 melanoma): 245 nM | TGI (SK-MEL-5 melanoma): 12400 nM | GI50 (SK-OV-3 ovarian): 274 nM | TGI (SK-OV-3 ovarian): 1020 nM | GI50 (SN12C renal): 557 nM | TGI (SN12C renal): > 100000 nM | GI50 (SNB-19 CNS): 729 nM | TGI (SNB-19 CNS): > 100000 nM | GI50 (SNB-75 CNS): 138 nM | TGI (SNB-75 CNS): 527 nM | GI50 (SR leukemia): 104 nM | TGI (SR leukemia): 41400 nM | GI50 (SW-620 colon): 111 nM | TGI (SW-620 colon): > 100000 nM | GI50 (T-47D breast): 466 nM | TGI (T-47D breast): > 100000 nM | GI50 (TK-10 renal): 597 nM | TGI (TK-10 renal): > 100000 nM | GI50 (U251 CNS): 339 nM | TGI (U251 CNS): > 78700 nM | GI50 (UACC-257 melanoma): 449 nM | TGI (UACC-257 melanoma): > 69000 nM | GI50 (UACC-62 melanoma): 379 nM | TGI (UACC-62 melanoma): > 60300 nM | GI50 (UO-31 renal): 376 nM | TGI (UO-31 renal): > 88800 nM
